In US20080095713A1, “Method of Tumour Imaging” (priority 2004, published 2008):
Each block holds one molecule with its values, some of them ahead of it.

How the values were obtained:
[1] = test system: R3230AC rat mammary adenocarcinoma; test: In vivo ^13C-MR tumour imaging using hyperpolarised ^13C-pyruvate
Protocol: R3230AC is a rat mammary adenocarcinoma that can be maintained in female Fischer 344 rats. To establish the animal tumour model, a frozen vial of R32030 cells containing RPMI 1640, 10% FBS and 10% DMSO was rapidly thawed in 37° C. Thereafter, the cell solution was transferred to FBS and increasing volumes of RPMI 1640 were added. Finally, the cell suspension was transferred to a 25 cm^2 growth flask and put into an incubator at 37° C., 5% CO2. Growth media were changed every other day. At the day of rat infection, removal of cells was carried out either by mechanical force or by means of trypsin. Cells were washed using phosphate buffer lacking calcium and magnesium. Trypsin (0.05% trypsin in 0.02% EDTA) was added for 2-5 min. Then, 5 ml FBS was added and the cells were transferred into a beaker containing RPMI 1640 with FCS and antibiotics (100 IU/ml penicillin, 100 IU/ml streptomycin and 2.5 μg/ml amphotericin B). The cell solution was centrifugated and the cell pellet was resuspended in 20 ml RPMI with FBS and antibiotics, centrifugation and resuspension was repeated. The cells were then aliquoted to vials containing 4×10^6 cells/ml RPMI 1640. To obtain donor tumours, female Fischer 344 rats (Charles River, 180-200 g) were anaesthetised and 0.3 ml of the cell suspension was subcutaneously injected in the inguinal region on both sides. 15 and 22 days later, pieces of tumour were prepared as described in F. A. Burgener et al., Invest Radiol 22/6 (1987), 472-478; S. Saini et al., J. Magn. Reson. 129/1 (1997), 35-43). Two incisions were made on the ventral abdomen of recipient female Fischer rats. A tumour piece was inserted into each pocket and the incisions were closed. Rats were brought to imaging 12-14 days after tumour engrafting.
Weighed rats were anaesthetised using isoflurane (2-3%) and kept on a heated table to ensure a body temperature of about 37° C. A catheter was introduced into the tail vein and into the arteria carotis communis sinistra. The rats were transported to the MR machine and placed on a home-built pad that was heated to approx. 37° C. by means of circulating FC-104 Fluorinert. This liquid will not give rise to background signals in ^1H- and ^13C-MR imaging. Anaesthesia was continued by means of 1-2% isoflurane delivered via a long tube to an open-breathing system at a rate of 0.4 L/min. […]
Based on the proton frequency found by the MR system the MR frequency for ^13C1-alanine was calculated according to the following equation: […]
The frequency calculated positioned the MR signal arising from ^13C1-alanine on resonance with ^13C1-lactate on the left and ^13C1-pyruvate resonating on the right of ^13C1-alanine. […]

[2] = Properties of the injected ^13C1-pyruvate composition at time of injection; type: physicochemical
Text: The frequency calculated positioned the MR signal arising from ^13C1-alanine on resonance with ^13C1-lactate on the left and ^13C1-pyruvate resonating on the right of ^13C1-alanine. An unlocalised MR spectroscopy sequence was run to ensure that the 13C-MR coil and the system MR frequency had been set up correctly. The ^13C-image location was positioned to cover the tumour (slice thickness 10 mm, in plane pixel size 5×5 mm^2). In the reconstruction phase, the image data was zero-filled to result in 2.5×2.5×10 mm^3 resolution. ^13C1-pyruvate in TRIS buffer (90 mM) was injected in a dose of 10 ml/kg during a period of 12 s with a minimum volume of 2 ml into the tail vein and 30 s after the start of the injection (i.e. 18 s after finishing the injection), the chemical shift ^13C-MR sequence was started.
In total 30 different tumours were imaged in 18 rats. 1 rat failed and 3 tumours failed the biological criteria described in the preceding paragraph 5.5. […] The average polarisation of ^13C1-pyruvate at the time of injection was 21.2±2.9% (mean ±SD) and the pH was 8.08±0.14 (mean±SD).

[3] = T1 relaxation of ^13C-pyruvate in human full blood; type: physicochemical; details: human full blood at 37° C.
Text: The amount of alanine, bicarbonate and lactate is dependent on the metabolic status of the tissue under investigation.

[4] = DNP polarisation, solid-state ^13C-NMR (enhanced vs thermal equilibrium signal); type: physicochemical; details: 20 mM Tris(8-carboxy-2,2,6,6-tetra(hydroxyethoxy)methyl-benzo[1,2-d:4,5-d′]bis(1,3)dithiole-4-yl)methyl sodium salt, 1.2 K, 3.35 T, 93.950 GHz
Protocol: A 20 mM solution was prepared by dissolving Tris(8-carboxy-2,2,6,6-tetra(hydroxyethoxy)methyl-benzo [1,2-d:4,5-d′]-bis-(1,3)-dithiole-4-yl)methyl sodium salt in ^13C1-pyruvic acid (83.1 mg). The sample was mixed to homogeneity, placed in a sample cup and inserted in the DNP polariser. The sample was polarised under DNP conditions at 1.2 K in a 3.35 T magnetic field under irradiation with microwave (93.950 GHz). The ^13C-NMR signal from the sample was acquired using a Varian Inova-200 NMR spectrometer. The DNP enhancement was calculated from a measurement of the thermal equilibrium ^13C-NMR signal and the enhanced NMR signal. 16% ^13C polarisation was obtained.

[5] = DNP polarisation, dissolution and liquid-state ^13C-NMR assessment of polarisation; type: physicochemical; details: 1.2 K, 3.35 T
Protocol: A 20 mM solution was prepared by dissolving 5.0 mg of the radical of Example 1 in ^13C1-pyruvic acid (164 μl). The sample was mixed to homogeneity and an aliquot of the solution (41 mg) was placed in a sample cup and inserted in the DNP polariser.
The sample was polarised under DNP conditions at 1.2 K in a 3.35 T magnetic field under irradiation with microwave (93.950 GHz). After 2 hours the polarisation was stopped and the sample was dissolved using a dissolution device according to WO-A-02/37132 in an aqueous solution of sodium hydroxide and tris(hydroxymethyl)-aminomethane (TRIS) to provide a neutral solution of hyperpolarized sodium^13C1-pyruvate. The dissolved sample was rapidly analysed with ^13C-NMR to assess the polarisation and a 19.0 % ^13C polarisation was obtained.
A 15 mM solution was prepared by dissolving the radical of Example 1 (209.1 mg) in a mixture of ^13C1-pyruvic acid (553 mg) and unlabelled pyruvic acid (10.505 g). […]
The sample was polarised under DNP conditions at 1.2 K in a 3.35 T magnetic field under irradiation with microwave (93.950 GHz). […] The filtered solution was rapidly analysed with ^13C-NMR to assess the polarisation, 16.5% ^13C polarisation was obtained. The residual radical concentration was subsequently analysed with a UV spectrophotometer at 469 nm and was determined to be below the detection limit of 0.1 μM.

[6] = rat, i.v. tail vein 10 ml/kg, imaging 30 s after start of injection

average polarisation at the time of injection ([2]; mean ±SD, ^13C1-pyruvate in TRIS buffer (90 mM)): 21.2±2.9%
pH ([2]; mean±SD, injected composition): 8.08±0.14
SMILES: CC(=O)[13C](=O)O [^13C1-pyruvate]
overall rate of success ([1]; discrimination of tumour and healthy tissue, 26 out of 26 tumours): 100%
metabolic contrast in the tumour area, lactate signal [1, 6]: 24 out of 26
metabolic contrast in the tumour area, lactate signal, alanine corrected [1, 6]: 26 out of 26
metabolic contrast in the tumour area, lactate signal, pyruvate corrected [1, 6]: 26 out of 26

T1 relaxation [3]: about 42 s
SMILES: CC(=O)[13C](=O)O [^13C-pyruvate]

^13C polarisation [4]: 16%
SMILES: CC(=O)[13C](=O)O [^13C1-pyruvic acid]

^13C polarisation ([5]; 15 mM radical of Example 1 in ^13C1-pyruvic acid/unlabelled pyruvic acid, 4 hours, dissolved NaOH/TRIS, 0.5 M pyruvate, radical removed on C18 column): 16.5%
^13C polarisation ([5]; 20 mM radical of Example 1 in ^13C1-pyruvic acid, 93.950 GHz, 2 hours, dissolved in NaOH/TRIS, liquid ^13C-NMR): 19.0%
SMILES: CC(=O)[13C](=O)[O-].[Na+] [sodium ^13C1-pyruvate]
